Results published in paper doi:10.1101/2020.06.24.169508v1 (biorxiv, 2020).

Key:
[1] = target: T1, VhChiP (chitooligosaccharide-specific porin, chitoporin) (Vibrio harveyi, UniProt L0RVU0); assay: intrinsic tryptophan fluorescence titration; assay type: binding; conditions: 20 mM phosphate pH 7.4, 0.2% LDAO, 25 °C; one-site fit
T1 sequence (L0RVU0 26-375): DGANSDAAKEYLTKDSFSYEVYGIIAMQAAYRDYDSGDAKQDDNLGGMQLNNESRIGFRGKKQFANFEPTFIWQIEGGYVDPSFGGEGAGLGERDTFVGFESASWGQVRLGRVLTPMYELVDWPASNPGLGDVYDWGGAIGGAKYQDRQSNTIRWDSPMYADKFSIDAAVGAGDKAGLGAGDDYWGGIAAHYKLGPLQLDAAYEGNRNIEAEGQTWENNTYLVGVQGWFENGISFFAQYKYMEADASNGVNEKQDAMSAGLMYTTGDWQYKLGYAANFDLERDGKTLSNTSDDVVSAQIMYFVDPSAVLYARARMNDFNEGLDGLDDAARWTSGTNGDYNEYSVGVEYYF

[2] = target: T1, VhChiP (chitooligosaccharide-specific porin, chitoporin); assay: biochemical; conditions: read-out: WT ΔTm (CD)
[3] = target: T1, VhChiP (chitooligosaccharide-specific porin, chitoporin); assay: biochemical; conditions: read-out: WT ΔTm (fluorescence)

| K [1] | ΔTm at 100 µM [2] [°C] | ΔTm at 1000 µM [3] [°C] | SMILES |
| --- | --- | --- | --- |
| 0.1 ± 0.04 ×10^5 M^-1 | 2.1 | 4 | CC(=O)N[C@H]1[C@H](O[C@H]2[C@H](O)[C@@H](NC(C)=O)C(O)O[C@@H]2CO)O[C@H](CO)[C@@H](O)[C@@H]1O (stereo partly shown) [Chitobiose] |
| 13 ± 0.5 ×10^5 M^-1 | 7 | 8 | CC(=O)N[C@H]1[C@H](O[C@H]2[C@H](O)[C@@H](NC(C)=O)[C@H](O[C@H]3[C@H](O)[C@@H](NC(C)=O)C(O)O[C@@H]3CO)O[C@@H]2CO)O[C@H](CO)[C@@H](O[C@@H]2O[C@H](CO)[C@@H](O[C@@H]3O[C@H](CO)[C@@H](O[C@@H]4O[C@H](CO)[C@@H](O)[C@H](O)[C@H]4NC(C)=O)[C@H](O)[C@H]3NC(C)=O)[C@H](O)[C@H]2NC(C)=O)[C@@H]1O (stereo partly shown) [Chitohexaose] |
| 3.8 ± 0.2 ×10^5 M^-1 | 5.7 | 6 | CC(=O)N[C@H]1[C@H](O[C@H]2[C@H](O)[C@@H](NC(C)=O)[C@H](O[C@H]3[C@H](O)[C@@H](NC(C)=O)C(O)O[C@@H]3CO)O[C@@H]2CO)O[C@H](CO)[C@@H](O[C@@H]2O[C@H](CO)[C@@H](O[C@@H]3O[C@H](CO)[C@@H](O)[C@H](O)[C@H]3NC(C)=O)[C@H](O)[C@H]2NC(C)=O)[C@@H]1O (stereo partly shown) [Chitopentaose] |
| 1.4 ± 0.01 ×10^5 M^-1 | 3.8 | 5 | CC(=O)N[C@H]1[C@H](O[C@H]2[C@H](O)[C@@H](NC(C)=O)C(O)O[C@@H]2CO)O[C@H](CO)[C@@H](O[C@@H]2O[C@H](CO)[C@@H](O[C@@H]3O[C@H](CO)[C@@H](O)[C@H](O)[C@H]3NC(C)=O)[C@H](O)[C@H]2NC(C)=O)[C@@H]1O (stereo partly shown) [Chitotetraose] |
| 0.5 ± 0.03 ×10^5 M^-1 | 3.2 | 4 | CC(=O)N[C@H]1[C@H](O[C@H]2[C@H](O)[C@@H](NC(C)=O)C(O)O[C@@H]2CO)O[C@H](CO)[C@@H](O[C@@H]2O[C@H](CO)[C@@H](O)[C@H](O)[C@H]2NC(C)=O)[C@@H]1O (stereo partly shown) [Chitotriose] |
| – | – | 2 | CC(=O)N[C@H]1C(O)O[C@H](CO)[C@@H](O)[C@@H]1O (stereo partly drawn) [D-GlcNAc] |
